From patent US11008340B2, “Modulators of ROR-gamma” (Vitae Pharmaceuticals, LLC, priority 2015, dated 2021)

The molecules below were run against T1, recombinant RORγ Ligand Binding Domain (LBD) protein (Homo sapiens, UniProt P51449) (assay: Radio-Ligand RORγ Binding Assay (Assay 1)). Conditions: competition with 25-hydroxy [26,27-3H]-cholesterol, SPA; class symbols; read-out: Avg ROR Bind Ki.
T1 construct: 6×His; GST
T1 sequence (P51449 269-508 limits assumed): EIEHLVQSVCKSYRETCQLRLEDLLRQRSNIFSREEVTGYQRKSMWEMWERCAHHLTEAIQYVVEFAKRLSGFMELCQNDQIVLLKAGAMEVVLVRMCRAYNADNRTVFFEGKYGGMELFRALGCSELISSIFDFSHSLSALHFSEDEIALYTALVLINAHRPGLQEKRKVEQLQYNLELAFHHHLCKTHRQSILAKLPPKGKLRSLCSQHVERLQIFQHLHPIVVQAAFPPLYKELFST
Procedure: Radio-Ligand RORγ Binding Assay (Assay 1)
Compounds described herein were tested for ability to bind to RORγ in a cell-free competition assay with commercially available radio-ligand (RL), 25-hydroxy [26,27-^3H]-cholesterol (PerkinElmer, Cat. #NET674250UC), for a ligand binding site on a recombinant RORγ Ligand Binding Domain (LBD) protein expressed as a 6×His-Glutathione-S-Transferase (GST) fusion. The assay was performed in 96-well SPA plates (PerkinElmer, Cat. #1450-401) in 50 mM HEPES buffer, pH 7.4, containing 150 mM NaCl, 5 mM MgCl2, 10% (v/v) glycerol, 2 mM CHAPS, 0.5 mM 3-octylglucopyranoside and 5 mM DTT. Tested compounds were dissolved in DMSO, and semi-log (3.162×) serial dilutions of the compounds were prepared in the same solvent. Two μL of the DMSO solutions were mixed with 28 μL of 8.6 nM 25-hydroxy [26,27-^3H]-cholesterol and 50 μL of 24 nM RORγ LBD. The plate was shaken at 700 rpm for 20 min and incubated for 10 min at rt, after which 40 μL of poly-Lys YSi SPA beads (PerkinElmer, Cat. #RPNQ0010) were added to achieve 50 μg of the beads per well. The plate was incubated on an orbital shaker for 20 min and then for 10 min without agitation at rt. SPA signal for tritium beta radiation was registered on PerkinElmer Microbeta plate reader. […] The percent inhibition vs. concentration data were fit into a four-parameter model, and IC50 values were calculated from the fit as the concentrations corresponding to the inflection points on the dose-response curves. Inhibitory constants (Ki) were calculated using the following equation, where [RL] is the concentration in the assay and KD is a dissociation constant of 25-hydroxy [26,27-^3H]-cholesterol: […]

Ki [nM] | SMILES
100 to 1000 | CCS(=O)(=O)c1ccc([C@H](CO)NC(=O)c2ccc3c(OC[C@H]4CC[C@H](C(F)(F)F)CC4)ncnc3c2)cc1 [Hy1C-1, N-((R)-1-(4-(ethylsulfonyl)phenyl)-2-hydroxyethyl)-4-(((1r,4R)-4-(trifluoromethyl)cyclohexyl)methoxy)quinazoline-7-carboxamide]

Same assay, conditions: radio-ligand competition, 25-hydroxy [26,27-3H]-cholesterol, RORγ LBD; read-out: Avg ROR Bind Ki

SMILES | Ki [nM]
CCS(=O)(=O)c1ccc(CNC(=O)c2cnc3c(C4CC4)n(C[C@H]4CC[C@H](C(F)(F)F)CC4)nc3c2)nc1 [Hy3B-3, 3-cyclopropyl-N-((5-(ethylsulfonyl)pyridin-2-yl)methyl)-2-(((1r,4r)-4-(trifluoromethyl)cyclohexyl)methyl)-2H-pyrazolo[4,3-b]pyridine-6-carboxamide] | 100 to 1000
CCS(=O)(=O)c1ccc(CNC(=O)c2c[nH]c3c(OC[C@H]4CC[C@H](C(F)(F)F)CC4)nccc23)cc1 [Hy5-2, N-(4-(ethylsulfonyl)benzyl)-7-(((1r,4r)-4-(trifluoromethyl)cyclohexyl)methoxy)-1H-pyrrolo[2,3-c]pyridine-3-carboxamide] | 100 to 1000
CCS(=O)(=O)c1ccc(CNC(=O)c2ccc3c(c2)CN(c2ncc(N4CCOCC4)cn2)C[C@@H]3C(C)C)cc1 (single isomer, unassigned) [Hy7-19.2] | > 1000
CCS(=O)(=O)c1ccc(CNC(=O)c2ccc3c(c2)CCN(c2ncc(C#N)cn2)[C@@H]3C(C)C)cc1 (single isomer, unassigned) [Hy2A-1.1] | 100 to 1000
CC[C@H]1CN(c2ncc(C(F)(F)F)cc2C#N)Cc2cc(C(=O)N[C@@H](CO)c3ccc(S(=O)(=O)CC)cc3)ccc21 (single isomer, unassigned) [Hy7-37.2] | < 100
CCS(=O)(=O)c1ccc([C@H](CO)NC(=O)c2ccc3c(OC[C@H]4CC[C@H](C(F)(F)F)CC4)cc(C)nc3c2)cc1 [Hy1B-4, N-((R)-1-(4-(ethylsulfonyl)phenyl)-2-hydroxyethyl)-2-methyl-4-(((1r,4R)-4-(trifluoromethyl)cyclohexyl)methoxy)quinoline-7-carboxamide] | 100 to 1000

Further lines, results first:

Ki [nM] | SMILES
< 100 | CCS(=O)(=O)c1ccc(CNC(=O)c2ccc3c(c2)CN(c2ncc(C(F)(F)F)cn2)C[C@@H]3C(C)C)cc1 (single isomer, unassigned) [Hy7-15.2]
100 to 1000 | CCS(=O)(=O)c1ccc(CNC(=O)c2ccc3c(c2)CN(c2ncc(C#N)cn2)C[C@@H]3C(C)C)cc1 (single isomer, unassigned) [Hy7-2.2]
100 to 1000 | CCS(=O)(=O)c1ccc(CNC(=O)c2ccc3c(c2)CCN(Cc2ccc(F)cc2)C3C)cc1 (racemic) [Hy2A-8, N-(4-(ethylsulfonyl)benzyl)-2-(4-fluorobenzyl)-1-methyl-1,2,3,4-tetrahydroisoquinoline-6-carboxamide]
> 1000 | CCS(=O)(=O)c1ccc(CNC(=O)c2ccc3c(c2)CN(c2ncc(-c4ccc(=O)n(C)c4)cn2)C[C@@H]3C(C)C)cc1 (single isomer, unassigned) [Hy7-24.2]
100 to 1000 | CCOC(=O)c1cnc(N2CCc3cc(C(=O)NCc4ccc(S(=O)(=O)CC)cc4)ccc3[C@H]2C(C)C)nc1C(F)(F)F (single isomer, unassigned) [Hy2A-5.2]
100 to 1000 | CC[C@@H]1CN(C2CCOCC2)Cc2cc(C(=O)N[C@@H](CO)c3ccc(S(=O)(=O)CC)cc3)ccc21 (single isomer, unassigned) [Hy7-30.1]
< 100 | CCS(=O)(=O)c1ccc([C@H](CO)NC(=O)c2cnc3c(C4CC4)n(C[C@H]4CC[C@H](C(F)(F)F)CC4)nc3c2)nc1 [Hy3B-4, 3-cyclopropyl-N-((R)-1-(5-(ethylsulfonyl)pyridin-2-yl)-2-hydroxyethyl)-2-(((1r,4R)-4-(trifluoromethyl)cyclohexyl)methyl)-2H-pyrazolo[4,3-b]pyridine-6-carboxamide]

Same assay, conditions: radio-ligand competition, RORγ LBD; head without unit (Tables 15, 17); read-out: Avg ROR Bind Ki

Ki [nM] | SMILES
100 to 1000 | CCS(=O)(=O)c1ccc(CNC(=O)c2cnc3c(c2)CCN(Cc2ccc(Cl)cc2)C3C(C)C)cc1 (single isomer, unassigned) [Hy2B-8.2]
100 to 1000 | CCS(=O)(=O)c1ccc(CNC(=O)c2cnc3c(c2)CCN(c2ncc(C(F)(F)F)cn2)[C@@H]3C(C)C)cc1 (single isomer, unassigned) [Hy2B-3.2]
